# “Also recorded” adds a separate entry of the source. Peptide text beside a SMILES is read from it. * marks the point of attachment. X1 = NC(=O)C12CC3CC(CC(N*)(C3)C1)C2
# Key:
# normal adult mice = experiment: Spatial reference memory task in the water maze; format: in vivo
# Method: (§1) For the compound treatment, mice (8 animals/group) received subcutaneous implants of extended release depot pellets containing P21 or P22 at 25 nmol/day for 35 days of continuous dosing (Innovative Research of America, USA). For the control group (8 animals), pellets consisted of the carrier polymer only. Mice were anesthetized with 2.5% Avertin (0.38 ml for a 25 g animal). Under sterile conditions, pellets were implanted subcutaneously along the anterolateral aspect of the right shoulder with a precision trochar (Innovative Research of America). After recovery of anesthesia, animals were transferred to the animal colony. No complications associated with the implantation and treatment were observed. All procedures on animals were conducted in accordance with approved protocols from our Institutional Animal Welfare Committee.
# Spatial reference learning and memory were evaluated in the water maze using a procedure adapted from that previously described by Morris et al. (Morris, R. G., et al. Nature 297 (1982): 681-3). The test required that mice used a spatial navigational strategy based on a spatial representation of the environment to find a fixed submerged escape platform. The procedure was performed in a 180 cm diameter circular tank. The pool was filled with water (21±1° C.) made opaque by adding white non-toxic paint. Acquisition started with the escape platform (15 cm diameter submerged 1 cm below water surface) in the Northwest quadrant and each animal was given 90 s to find the platform. […] At the end of each trial, the mouse was left on the platform for 20 seconds, then dried and returned to its home cage until the next trial. Five such acquisition trials were given on each day for four consecutive days. A test for retention, or probe trial (PT), was given 24 hours later. During the probe trial the mouse was allowed to swim in the tank without the escape platform for 60 seconds. This was followed by second and third probe trials 15 and 30 days after the first probe trial.
# The measures of learning were the time and distance covered to reach the escape platform. For the probe trial, the tank was divided into four imaginary quadrants and a small zone where the escape platform had been. The measure of retention was calculated as the ratio of time spent or distance covered in target quadrant over that in the three other quadrants.
# Mouse behavior in the water maze was monitored by a Samsung Digital Camera (SDC 4304) mounted to the ceiling and tracked and timed by a SMART (Pan Lab/San Diego Instruments) version 2.0.14 software.
# [1] = system: adult hippocampal progenitors in the dentate gyrus; experiment: Neurogenesis in the DG (BrdU-positive and BrdU/NeuN-double-positive cells); format: in vivo, mice; conditions: 25 nmol/day for 35 days
# Method: as §1
# To investigate neurogenesis, BrdU (Sigma, USA) was given as two daily i.p. injections (100 mg/kg/dose) for five days starting on day 2 of compounds treatment.
# At the end of the behavioral experiment, animals were anesthetized with an overdose of sodium pentobarbital (120 mg/kg) and transcardially perfused with 0.1 M phosphate buffered saline (PBS). After perfusion, the brains were removed from the skull, the left hemisphere was immediately frozen for future biochemical analysis and the right hemisphere was immersion fixed in 4% paraformaldehyde in 0.1 M PBS for at least 24 hours at room temperature. Tissues were equilibrated and stored in 30% sucrose solution at 4° C. until sectioning. The brains were sectioned sagittaly on a freezing sliding microtome at 40 μm through the entire hippocampus and the sections were stored in glycol anti-freeze solution (Ethylene glycol, glycerol and 0.1 M PBS in 3:3:4 ratio) at −20° C. until further processing.
# For double labeling of BrdU and NeuN, brain sections were pretreated with 2 M HCl at 37° C. for 30 min and neutralized with 0.1 M borate buffer (pH 8.5) for 10 minutes. […]
# Neurogenesis in the dentate gyrus was evaluated by counting the number of BrdU-positive and BrdU/NeuN-double-positive cells in the dentate gyrus (DG). The number of positive cells was determined in every fifth section in a series of 40 μm sagittal sections throughout the DG using unbiased sterology. All BrdU-positive cells in the subgranular zone (SGZ) and granule cell layer (GCL) were counted using a fluorescent microscope (Nikon Eclipse 90i, Nikon Corporation, Japan). Double labeled cells were assessed by a confocal imaging system (D-Eclipse C1, Nikon Corporation). […] For each brain, at least 100 cells were counted based on coefficient of error determinations.
structure (smiles),measurement,setting,value
"CC(=O)N[C@@H](CC(=O)O)C(=O)NCC(=O)NCC(=O)N[C@@H](CC(C)C)C(=O)NC12CC3CC(C1)CC(C(N)=O)(C3)C2 [Peptide P21, Ac-DGGL^AG-NH2] (Ac-DGGL-X1)","time in the target quadrant, probe trials PT2 and PT3",normal adult mice; 15 and 30 days after the end of the treatment,beneficial effect disappeared; also recorded: showed no effect
same,"time in the target quadrant, first probe trial",normal adult mice; 24 hours after last day of training,focus significantly more on the target quadrant; also recorded: improved performance in the first probe trial
same,escape latencies to reach the submerged platform (learning),"normal adult mice; training day 2 to 4, compared to control group",significantly reduced; also recorded: increased performance in the learning of spatial memory task
same,BrdU positive cells in the DG (GCL and SGZ),[1],significantly increased; also recorded: significant increase
same,BrdU/NeuN positive cells in the DG (GCL),[1],significantly increased; also recorded: significant increase

# Source: patent US8592374B2, “Neurotrophic peptides” (Research Foundation for Mental Hygiene, Inc., priority 2007, dated 2013)
